Measured values taken from patent publication US8524659B2, “RNA virus-derived peptides with modified side chains” (National Taiwan University, priority 2011, dated 2013).

Tests used:
HIV TAR RNA [1] = test: Fluorescence anisotropy binding of Tat peptides to fluorescein-labeled TAR RNA
Experimental: The binding affinity of XaaTat peptides (Xaa=Agh, Arg and Agb) for TAR RNA was measured by fluorescence anisotropy using a Varian Cary Eclipse fluorescence spectrophotometer. The anisotropy (r) was calculated using the following equation: […]
where Ivv, Ivh, Ihh, Ihv are the fluorescence intensities with the excitation polarizer and emission polarizer is oriented perpendicular (Ivh and Ihv) and parallel (Ivv and Ihh) to the direction of the polarized excitation. The fluorescein-labeled TAR RNA (F-TAR-RNA) was excited at 490 nm and the polarized emissions were monitored at 512 nm. The slits were set at 10 nm for both excitation and emission. The integration time was 20 seconds. All data were measured in a Sub-Micro (Starna Cell, Inc.) with a starting volume of 160 μL. Each addition (1 μL) of XaaTat was equilibrated for two minutes before the fluorescence signal was recorded. All experiments were performed at room temperature in TKT buffer (TKT: 50 mM Tris-HCl, pH 7.4, 20 mM KCl and 0.02% Tween20). The initial concentration of F-TAR-RNA was 25 nM. The TKT solution and peptide stock solution were both equilibrated at room temperature more than 20 minutes before the experiment. The experiment was repeated three times independently. For every single point, three measurements were performed and the average value was used for deriving the apparent (apparent KD). The apparent for the peptide-RNA complex was derived by fitting the data assuming a 1:1 peptide-RNA stoichiometry. The fitting was performed using Kaleidagraph 3.52. (Synergy Software, CA).

HIV TAR RNA [2] = test: Gel shift assay (EMSA) with fluorescein-labeled TAR RNA in the presence of poly(dI-dC); type: binding
Experimental: The fluorescein-labeled TAR RNA (F-TAR-RNA) was purchased from Sigma. F-TAR-RNA was dissolved in diethyl pyrocarbonate treated H2O to give a 50 μM solution. Binding assays were performed at room temperature. Peptide and RNA were incubated in pH 7.4 buffer (10 μL) containing Tris-HCl (50 mM), KCl (50 mM), poly-dIdC (10 μg/mL), 2% glycerol, and Triton X-100 (0.05%). The F-TAR-RNA concentration was 100 nM. The samples were analyzed by loading into 12% native polyacrylamide gels in […] and electrophoresis was performed with 140 V at room temperature. Dried gels were scanned by the Typhoon TRIO+ Variable Mode Imager. Bands corresponding to the free and bound RNA were quantified using ImageQuant software. The apparent dissociation constants were globally derived from the quantified data assuming a 1:1 binding stoichiometry.

Jurkat cells = test: MTT assay for determining cell survival; type: cell-based; conditions: 7 μM and 30 μM peptide, 4 hours, 37° C., FIG. 4
Experimental: The cells were grown to appropriate cell density (roughly 2×10^6 cells/mL) and transferred into new media one day before performing the experiment. For each assay, 8×10^5 cells as determined by a hemocytometer were added into an eppendorf. The cells were centrifuged at 2200 rpm for 5 minutes. The supernatant was removed by suction. Then 200 μL of 7 μM or 30 μM XaaTat peptide was added. The cells were incubated for 4 hours at 37° C. and then centrifuged at 2200 rpm for 5 minutes. The cells were washed with RPMI medium twice, and then 200 μL of 0.5 mg/mL MTT in serum free RPMI buffer was added and incubated at 37° C. for 3.5 hours. The cells were then centrifuged at 4000 rpm for 5 minutes. The supernatant was then transferred to two wells (100 μL each) of a 96-well plate. Then 400 μL DMSO was added to the cells in the assaying eppendorf. The eppendorf was then vortexed for 5 minutes to solubilize the MTT purple crystals, and centrifuged at 2200 rpm for 5 minutes. Then the supernatant was transferred to 4 wells (100 μL each) of the 96-well plate for analysis. The absorbance at 570 was determined for each well using a microplate reader with the absorbance at 655 nm used for background correction. A standard curve was generated using different number of cells (8×10^5, 4×10^5 and 2×10^5). The absorbance for each sample for each peptide at each concentration was then correlated to the number of live cells based on the standard curve.

SMILES | Kd (HIV TAR RNA [1]; Table 2, read-out: KD, binding affinity of Tat-peptide and TAR RNA by fluorescence anisotropy assay) [nM] | Kd (HIV TAR RNA [1]; fluorescence anisotropy, 25 nM fluorescein-labeled HIV TAR RNA, absence of poly(dI-dC), 1:1 stoichiometry, read-out: Apparent KD HIV TAR RNA) [nM] | Kd (HIV TAR RNA [2]; EMSA, 100 nM fluorescein-labeled HIV TAR RNA, 10 μg/mL poly(dI-dC), 1:1 stoichiometry, read-out: Apparent KD HIV TAR RNA with poly(dI-dC)) [nM] | Effect of poly(dI-dC) on binding affinity for TAR RNA (specificity) (HIV TAR RNA [2]; comparison of absence and presence of poly(dI-dC), Table 1) | Kd (HIV TAR RNA [2]; in the presence of 10 μg/mL poly(dI-dC), FIG. 9, read-out: KD of peptide and TAR-RNA by gel shift assay) [nM] | Kd (HIV TAR RNA [2]; in the presence of poly(dI-dC) at 25° C., Table 3, read-out: KD, dissociation constant of Tat-peptide and TAR RNA by gel shift assay) [nM] | Cytotoxicity (cell survival) (Jurkat cells)
CC(=O)N[C@@H](Cc1ccc(O)cc1)C(=O)NCC(=O)N[C@@H](CCCNC(=N)N)C(=O)N[C@@H](CCCCN)C(=O)N[C@@H](CCCCN)C(=O)N[C@@H](CCCNC(=N)N)C(=O)N[C@@H](CCCNC(=N)N)C(=O)N[C@@H](CCC(N)=O)C(=O)N[C@@H](CCCNC(=N)N)C(=O)N[C@@H](CCCNC(=N)N)C(=O)N[C@@H](CCCNC(=N)N)C(N)=O [ArgTat, Ac-Tyr-Gly-Arg-Lys-Lys-Arg-Arg-Gln-Arg-Arg-Arg-NH2, reference compound] | 25 ± 3 | 25 ± 3 | 67 ± 19 | somewhat affected | 67 ± 19 | 67 ± 19 | minimal cytotoxicity
CC(=O)N[C@@H](Cc1ccc(O)cc1)C(=O)NCC(=O)N[C@@H](CCNC(=N)N)C(=O)N[C@@H](CCCCN)C(=O)N[C@@H](CCCCN)C(=O)N[C@@H](CCNC(=N)N)C(=O)N[C@@H](CCNC(=N)N)C(=O)N[C@@H](CCC(N)=O)C(=O)N[C@@H](CCNC(=N)N)C(=O)N[C@@H](CCNC(=N)N)C(=O)N[C@@H](CCNC(=N)N)C(N)=O [AgbTat, Ac-Tyr-Gly-Agb-Lys-Lys-Agb-Agb-Gln-Agb-Agb-Agb-NH2] | – | – | – | – | – | – | minimal cytotoxicity
